Data taken from patent US20250129033A1, “METAP2 INHIBITORS AND USES THEREOF” (Yissum Research Development Company of the Hebrew …, priority 2022, published 2025).

Key:
MDA-MB-231 xenograft = MDA-MB-231 xenograft in mice; format: in vivo, Foxn1 nu mice
Protocol: (§1) Animal studies were approved by the Institutional Animal Care and Use Committee of the Faculty of Medicine of the Hebrew University and followed the guidelines for use of laboratory animals. 6-8-week-old male Foxn1 nu mice were S.C. injected with 5×10^6 A375 and MDA-MB-231 cells/mouse. Mice were I.P treated with 30 mg/kg and 15 mg/kg AD-3281 every other day and with 15 mg/kg, 7.5 mg/kg AD-3281 every other day in mice injected with A375 and MDA-MB-231 respectively. Tumor growth was measured with a digital caliper. At the end of the experiments after 18 or 15 days, mice were sacrificed, and tumors were surgically removed, weighed, volume was measured and histology stating was performed. AD-3281 was dissolved in 10:10:80 […]:ethanol:saline.
(§2) Animal studies were approved by the Institutional Animal Care and Use Committee of the Faculty of Medicine of the Hebrew University and followed the guidelines for use of laboratory animals. 6-8-week-old male Foxn1 nu mice were S.C. injected with 5×10^6 A375 or MDA-MB-231 cells/mouse. Mice were I.P treated with 30 mg/kg and 15 mg/kg AD-3281 q.o.d and with 15 mg/kg, 7.5 mg/kg AD-3281 (dissolved in 10:10:80 Cremophor EL: Ethanol: Saline) q.o.d in mice injected with A375 and MDA-MB-231 respectively. Tumor growth was measured with a digital caliper. At the end of the experiments after 18 or 15 days, mice were sacrificed, and tumors were surgically removed, weighed, volume was measured and histology stating was performed. Tumor tissues were resected at the end point and analyzed by immunohistology using standard protocol for paraffin fixed sections using anti-Ki-67 (Abcam, catalog number ab15580), anti-CD31 (Abcam, catalog number ab28364), anti-MetAp-2 (Ab134124, Abcam, Cambridge, UK) (Figure S.

[1] = test system: Choroidal Neovascularization (CNV); assay: Laser-induced CNV in mice; format: in vivo, C57Bl/6J mice; settings: 12 μg per eye, intravitreal, 7 days
Source text: Laser-induced CNV was generated by a previously described technique with some modifications. C57Bl/6J mice (6-8 weeks) were anesthetized by intraperitoneal injections of a mixture of 85% ketamine and 15% xylazine. A mixture of 0.5% tropicamide and 0.5% phenylephrine hydrochloride was applied to both eyes to dilate the pupils. Lesions were induced by a diode pumped solid state laser (0.1 s; spot size, 100 μm; power 120 mW) around the optic nerve through a slit lamp delivery system using a Nidek while a hand-held cover slide was used as a contact lens. Only lesions in which a subretinal bubble or focal serous detachment of the retina developed were used for the experiments. For this purpose, 4 burns were performed per eye while leaving a space around the optic disc. Intravitreal injections of the treatments were performed using a PLI-100 Pico-Injector following the laser procedure. After 7 days mice were euthanized and their eyes were removed and fixed in 4% paraformaldehyde for 60 min. The cornea and lens were removed, and the entire retina was carefully dissected from the eyecup Choroid.
Blood vessels were labeled using a 1:200 dilution of isolectin IB4 conjugated with Alexa Fluor 488 or lectin-FITC. The eyecup was flat-mounted in an aqua-mount with the sclera facing down and the choroid facing up. […] The CNV area (presented in μm2) in choroidal flat mount was evaluated using ImageJ software […]

A375 xenograft = A375 xenograft in mice; format: in vivo, Foxn1 nu mice; settings: for inhibition in tumor growth: 15 mg/kg and 30 mg/kg I.P. q.o.d
Protocol: as §1, §2

Question: How did the “mean weight of extracted tumors” value (MDA-MB-231 xenograft; 7.5 mg/kg q.o.d (untreated 1 g)) turn out when `COC1C(OC(=O)CC23CC4CC(CC(C4)C2)C3)CCC2(CO2)C1C1(C)OC1CC=C(C)C` (centres unmarked) [AD-3281, Fumagillol-1-adamantylacetate] was run?
Answer: Its value is 0.05 g.

Question: And the tumor volume inhibition (MDA-MB-231 xenograft; 7.5 mg/kg q.o.d, after 15 days)?
Answer: Its tumor volume inhibition is 97%.

Question: What about the “mean weight of extracted tumors” value (MDA-MB-231 xenograft; 15 mg/kg q.o.d (untreated 1 g)) of the same compound?
Answer: Its value is 0.001 g.

Question: What about the “tumors that seemed completely eradicated” value (MDA-MB-231 xenograft; 15 mg/kg q.o.d, after 15 days, n=4) of the same compound?
Answer: The value was 3 tumors.

Question: What about the systemic adverse effects (MDA-MB-231 xenograft; all treated mice) of the same compound?
Answer: Its systemic adverse effects is “no signs of systemic adverse effects”.

Question: And the “weight loss (>10%)” value (MDA-MB-231 xenograft; all treated mice)?
Answer: Its value is “not weight loss was detected”.

Question: And the “effect on mouse laser induced CNV” value [1]?
Answer: Its value is 46%.

Question: What about the “inhibition in tumor growth” value (A375 xenograft; after 8 days, vs control) of the same compound?
Answer: Its value is ~70%.

Question: And the “inhibition in tumor growth” value (A375 xenograft; day 18)?
Answer: The value was 99%.

Question: And the “cellular proliferation in tumors (Ki-67)” value (A375 xenograft; immunofluorescent staining of extracted tumors)?
Answer: Its value is “less cellular proliferation than untreated tumors”.

Question: What about the “mean weight of extracted tumors” value (A375 xenograft; treated groups, day 18 (untreated 1 g)) of the same compound?
Answer: Its value is ~0.1 g.
